Bounds are passed on as bounds.

The values below come from paper PMC5496578 (Beilstein Journal of Organic Chemistry, 2017).

One assay addresses T1, human placental 17β-HSD1 (Homo sapiens, UniProt P14061).
T1 sequence (P14061 1-328): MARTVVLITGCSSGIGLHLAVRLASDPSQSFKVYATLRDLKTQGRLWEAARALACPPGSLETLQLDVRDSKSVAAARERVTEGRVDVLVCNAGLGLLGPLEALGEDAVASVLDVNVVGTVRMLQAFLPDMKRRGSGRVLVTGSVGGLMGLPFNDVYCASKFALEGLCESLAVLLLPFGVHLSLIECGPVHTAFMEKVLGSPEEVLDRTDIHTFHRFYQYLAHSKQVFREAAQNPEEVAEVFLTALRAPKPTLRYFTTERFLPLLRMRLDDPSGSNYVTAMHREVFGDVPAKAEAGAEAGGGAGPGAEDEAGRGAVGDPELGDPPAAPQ
Test: not given
Details: method as in PMID 26476182, PMID 27424610. The note with it: precursors marked with asterisk; cited from earlier work.
For the compound `COc1cc2c(cc1I)[C@H]1CC[C@@]3(C)C(=O)CC[C@H]3[C@@H]1CC2` [Compound 4], the IC50 (as a rule, the concentration needed to halve the response being measured) is above 10000 nM. As to `COc1ccc2c(c1I)CC[C@@H]1[C@@H]2CC[C@@]2(C)C(=O)CC[C@@H]12` [Compound 6], the IC50 was 560 nM.

A further assay addresses T1, human placental 17β-HSD1. The assay is described as follows: in vitro radiosubstrate incubation, 17β-HSD1 inhibition (estrone to 17β-estradiol conversion). It counts as biochemical.
Details: not given
The protocol: Determination of 17β-HSD1 inhibition
The inhibitory effects exerted on 17β-HSD1 activity by the newly synthesized conjugates were determined via an in vitro radiosubstrate incubation method described in detail earlier.[1]
Radiolabeled Chemicals (St. Louis, MO, USA).
NADPH cofactor, other chemicals and solvents of analytical grade purity were purchased from Sigma (St. Louis, MO, USA) and Fluka (Buchs, Switzerland).
Kieselgel-G TLC layers (Si 254 F, 0.25 mm thick) were obtained from Merck (Darmstadt, Germany). Human term placenta specimens were collected and used with the ethical approval of the Institutional Human Investigation Review Board.
Human term placenta specimens were combined and homogenized with an Ultra-Turrax in 0.1 M HEPES buffer (pH 7.3) containing 1 mM EDTA and 1 mM dithiotreitol, and the cytosol was obtained by fractionated centrifugation. The substrate tritium- […]
propylene glycol in HEPES buffer solution, whereas the test compounds were applied in 10 µl of dimethyl sulfoxide solution. (These organic solvent contents in the 200 µl […]
activity substantially.) Cofactor NADPH was used in excess concentration (100 µM).
The enzymatic reaction was started by the addition of the cytosol aliquots. Incubation was carried out at 37 °C for 2.5 min and was then stopped by the addition of ethyl […]
were added to the samples. The two steroids were separated by TLC with the solvent system dichloromethane/diisopropyl ether/ethyl acetate (70:15:15 v/v) and UV spots were used to trace the separated steroids. Spots were cut out and the radioactivity of […]
counting. Test compounds were applied at 10 µM and their inhibitory effects were expressed by relative conversions, in comparison with the transformation measured in the noninhibited control incubation. Two measurements were performed for each test compound and the mean was calculated. The IC50 values (the inhibitor concentration which decreases the enzyme activity to 50%) were determined for the […]
In these cases, conversions were measured at different concentrations in the interval 0.001–50 µM. IC50 results were calculated by using unweighted iterative least-squares logistic curve-fitting by means of the “absolute IC50 calculation” function of GraphPad Prism 4.0. The IC50 of unlabeled […]
1 Bacsa, I.; Jójárt, R.; Schneider, G.; Wölfling, J.; Maróti, P.; Herman, B. E.; Szécsi,
2 Szabó, J.; Jerkovics N.; Schneider G.; Wölfling J.; Bózsity N.; Minorics R.; Zupkó I.;
For `C[C@@]12CC[C@@H]3c4cc(C#Cc5ccccc5)c(O)cc4CC[C@H]3[C@@H]1CCC2=O` [Compound 8a], half-maximal inhibition (IC50) required 150 nM.

Regarding `Cc1ccc(C#Cc2cc3c(cc2O)CC[C@@H]2[C@@H]3CC[C@@]3(C)C(=O)CC[C@@H]23)cc1` [Compound 8b], the IC50 amounted to 1400 nM.

`COc1ccc(C#Cc2cc3c(cc2O)CC[C@@H]2[C@@H]3CC[C@@]3(C)C(=O)CC[C@@H]23)cc1` [Compound 8c] yielded an IC50 of 230 nM. With `C[C@@]12CC[C@@H]3c4cc(C#Cc5ccc(F)cc5)c(O)cc4CC[C@H]3[C@@H]1CCC2=O` [Compound 8d], the half-maximal inhibitory concentration (IC50) turned out to be 300 nM. On the same count and under the same terms, then `C[C@@]12CC[C@@H]3c4cc(C#Cc5ccc(C(F)(F)F)cc5)c(O)cc4CC[C@H]3[C@@H]1CCC2=O` [Compound 8e], with 930 nM; and `COc1ccc(CCc2cc3c(cc2O)CC[C@@H]2[C@@H]3CC[C@@]3(C)C(=O)CC[C@@H]23)cc1` [Compound 16], with 470 nM.

The assay is the same for the next values; noted with them: read-out: Relative conversion ± SD.
As to `COc1cc2c(cc1C#Cc1ccccc1)[C@H]1CC[C@@]3(C)C(=O)CC[C@H]3[C@@H]1CC2` [Compound 9a], the remaining activity at 10 µM amounted to 88 ± 12%. On the same count and under the same terms, then `COc1cc2c(cc1C#Cc1ccc(C)cc1)[C@H]1CC[C@@]3(C)C(=O)CC[C@H]3[C@@H]1CC2` [Compound 9b], with 84 ± 5%. Same read-out and setting: then `COc1ccc(C#Cc2cc3c(cc2OC)CC[C@@H]2[C@@H]3CC[C@@]3(C)C(=O)CC[C@@H]23)cc1` [Compound 9c], with 85 ± 1%. Take `COc1cc2c(cc1C#Cc1ccc(F)cc1)[C@H]1CC[C@@]3(C)C(=O)CC[C@H]3[C@@H]1CC2` [Compound 9d]: the remaining activity at 10 µM came to 94 ± 5%. As to `COc1cc2c(cc1C#Cc1ccc(C(F)(F)F)cc1)[C@H]1CC[C@@]3(C)C(=O)CC[C@H]3[C@@H]1CC2` [Compound 9e], the remaining activity at 10 µM is 76 ± 1%. Same read-out and setting: then `C[C@@]12CC[C@@H]3c4ccc(O)c(C#Cc5ccccc5)c4CC[C@H]3[C@@H]1CCC2=O` [Compound 10a], with 92 ± 15%; and `Cc1ccc(C#Cc2c(O)ccc3c2CC[C@@H]2[C@@H]3CC[C@@]3(C)C(=O)CC[C@@H]23)cc1` [Compound 10b], with 89 ± 0.4%.

In the case of `COc1ccc(C#Cc2c(O)ccc3c2CC[C@@H]2[C@@H]3CC[C@@]3(C)C(=O)CC[C@@H]23)cc1` [Compound 10c], the remaining activity at 10 µM came to 91 ± 2%. Consider `C[C@@]12CC[C@@H]3c4ccc(O)c(C#Cc5ccc(F)cc5)c4CC[C@H]3[C@@H]1CCC2=O` [Compound 10d], for which the remaining activity at 10 µM stood at 96 ± 7%.

Turning to `C[C@@]12CC[C@@H]3c4ccc(O)c(C#Cc5ccc(C(F)(F)F)cc5)c4CC[C@H]3[C@@H]1CCC2=O` [Compound 10e], the remaining activity at 10 µM turned out to be 85 ± 1%.

On to `COc1ccc2c(c1C#Cc1ccccc1)CC[C@@H]1[C@@H]2CC[C@@]2(C)C(=O)CC[C@@H]12` [Compound 11a], for which the remaining activity at 10 µM is 92 ± 12%. On the same count and under the same terms, then `COc1ccc2c(c1C#Cc1ccc(C)cc1)CC[C@@H]1[C@@H]2CC[C@@]2(C)C(=O)CC[C@@H]12` [Compound 11b], with 52 ± 12%; and `COc1ccc(C#Cc2c(OC)ccc3c2CC[C@@H]2[C@@H]3CC[C@@]3(C)C(=O)CC[C@@H]23)cc1` [Compound 11c], with 83 ± 8%; and `COc1ccc2c(c1C#Cc1ccc(F)cc1)CC[C@@H]1[C@@H]2CC[C@@]2(C)C(=O)CC[C@@H]12` [Compound 11d], with 83 ± 1%.

Take `COc1ccc2c(c1C#Cc1ccc(C(F)(F)F)cc1)CC[C@@H]1[C@@H]2CC[C@@]2(C)C(=O)CC[C@@H]12` [Compound 11e]: the remaining activity at 10 µM came out at 79 ± 3%. As for `COc1ccc(-c2cc3cc4c(cc3o2)CC[C@@H]2[C@@H]4CC[C@@]3(C)C(=O)CC[C@@H]23)cc1` [Compound 12], the remaining activity at 10 µM worked out at 92 ± 2%. Same read-out and setting: then `COc1ccc(/C=C\c2cc3c(cc2OC)CC[C@@H]2[C@@H]3CC[C@@]3(C)C(=O)CC[C@@H]23)cc1` [Compound 13], with 70 ± 6%.

As to `COc1ccc(-c2cc3c4c(ccc3o2)[C@H]2CC[C@@]3(C)C(=O)CC[C@H]3[C@@H]2CC4)cc1` [Compound 14], the remaining activity at 10 µM came out at 102 ± 6%. The same measure, in the same setting: then `COc1ccc(/C=C/c2c(OC)ccc3c2CC[C@@H]2[C@@H]3CC[C@@]3(C)C(=O)CC[C@@H]23)cc1` [Compound 15], with 80 ± 12%; and `COc1ccc(CCc2cc3c(cc2OC)CC[C@@H]2[C@@H]3CC[C@@]3(C)C(=O)CC[C@@H]23)cc1` [Compound 17], with 63 ± 8%; and `COc1ccc(CCc2c(O)ccc3c2CC[C@@H]2[C@@H]3CC[C@@]3(C)C(=O)CC[C@@H]23)cc1` [Compound 18], with 98 ± 3%. Still for that read-out and setting: for `COc1ccc(CCc2c(OC)ccc3c2CC[C@@H]2[C@@H]3CC[C@@]3(C)C(=O)CC[C@@H]23)cc1` [Compound 19] the value was 94 ± 1%.
